Measured values taken from paper PMC12040169 (PLOS Biology, 2025).

Assay: in vitro
Details: human, hela cells, % viability

For CN(C)c1ccc(-c2noc([C@@H]3CCCN3C)n2)cn1 [CBK288902], the viability at 28.5 h, 10 µM was 104%.
O=C(COc1ccccc1[N+](=O)[O-])Nc1nc2c(s1)CCC2 [CBK296663] showed a viability at 28.5 h, 10 µM of 85.1%.
With Cc1ccc(NC2=N[C@H]3[C@@H](O)[C@H](O)C[C@H](C(=O)N4CCCCC4)[C@H]3S2)cc1 [CBK288951] the viability at 28.5 h, 10 µM was 94.7%.
In the case of CN(C)Cc1ccc(C(=O)NCC(C)(C)N2CCCCC2)cc1 [CBK281865], the viability at 28.5 h, 10 µM is reported as 104%.
COc1cccc2sc(Nc3nc4ccc(S(C)(=O)=O)cc4s3)nc12 [CBK287472] showed a viability at 28.5 h, 10 µM of 104%.
N=C1NC(=O)/C(=C/c2ccc(OC(=O)c3cccc([N+](=O)[O-])c3)cc2)S1 [CBK263606] showed a viability at 28.5 h, 10 µM of 100%.
Compound Cc1cc(C)c(NC(=O)CSc2n[nH]c(=O)n2C2CC2)c(C)c1 [CBK295598] has a viability at 28.5 h, 10 µM of 95%.
With CN1CC(C(=O)N2CCCC(c3cc4cccnc4[nH]3)C2)CC1=O (stereo not shown) [CBK284958] the viability at 28.5 h, 10 µM was 92.5%.
OCCN(CC#CC(O)(c1ccccc1)c1cccc(F)c1)CCO (stereo not shown) [CBK301210C] showed a viability at 28.5 h, 10 µM of 91.2%.
N#Cc1cnc2c(-c3ccccc3)c(Cc3ccccc3)nn2c1N [CBK270191] gave a viability at 28.5 h, 10 µM of 91.8%.
Work on N[C@H](CSCc1ccccc1)C(=O)Nc1ccc([N+](=O)[O-])cc1 [CBK074824] yielded a viability at 28.5 h, 10 µM of 88.8%.
O=C(NCc1c(OC(=O)c2cccc([N+](=O)[O-])c2)ccc2ccccc12)c1ccccc1 [CBK260919] gave a viability at 28.5 h, 10 µM of 81.1%.
Compound CC(=O)c1ccc(NC(=O)Cn2cnc3c(sc4ncccc43)c2=O)cc1 [CBK287773] has a viability at 28.5 h, 10 µM of 95.4%.
For C=C(C)CN1CCN(C(=O)C2Cc3cc(Cl)ccc3O2)CC1 (stereo not shown) [CBK282639], the viability at 28.5 h, 10 µM was 89%.
Compound Cc1cc(NC(=O)CN(C)CC(=O)Nc2ccc(Br)cc2C)no1 [CBK260700] has a viability at 28.5 h, 10 µM of 92.9%.
In the case of COc1cccc(N(CC(=O)Nc2ccc(C)c(C)c2)S(=O)(=O)c2ccc(C)cc2)c1 [CBK263761], the viability at 28.5 h, 10 µM is reported as 103%.
With CNC(=O)C1(Cc2ccc(-c3ccccc3)cc2)CCN(C(=O)Cc2ccc(C)cc2)CC1 [CBK285769] the viability at 28.5 h, 10 µM was 90.4%.
In the case of O=C1NCCN1CCOc1nccnc1-c1cnn(Cc2ccccc2)c1 [CBK107094], the viability at 28.5 h, 10 µM is reported as 86.3%.
Cc1ccc(S(=O)(=O)NC(C)(C)CSc2nncn2C)cc1 [CBK266366] showed a viability at 28.5 h, 10 µM of 104%.
O=C(O)CCCn1cc(NC(=O)c2cc(F)c(F)cc2Cl)cn1 [CBK269967] gave a viability at 28.5 h, 10 µM of 87.8%.
Cc1[nH]nc(Nc2ccc(I)cc2)c1[N+](=O)[O-] [CBK262748] gave a viability at 28.5 h, 10 µM of 86.2%.
CC1CC1C(=O)NCCc1c[nH]c2cccc(C3(O)CCOCC3)c12 (stereo not shown) [CBK284840] gave a viability at 28.5 h, 10 µM of 95.7%.
In the case of COC(=O)c1c(NC(=S)Nc2ccc(Br)cn2)sc2c1CCC2 [CBK266862], the viability at 28.5 h, 10 µM is reported as 92.9%.
For Cc1nnnn1-c1ccc(CC(=O)N2CCc3sccc3C2c2ccco2)cc1 (stereo not shown) [CBK285705], the viability at 28.5 h, 10 µM was 88.2%.
CN(Cc1ccccc1)Cc1ccccc1O [CBK261879] showed a viability at 28.5 h, 10 µM of 92.4%.
For Cc1ccccc1-c1nnc(-c2ccc(C(=O)N=c3sccn3C)cc2)o1 [CBK298283], the viability at 28.5 h, 10 µM was 97.1%.
In the case of CC1Oc2ccccc2OC1C(=O)Nc1ccc([N+](=O)[O-])cc1Cl (stereo not shown) [CBK269412], the viability at 28.5 h, 10 µM is reported as 85.8%.
Compound CCN(CC)CCN1CCN(c2cncc(-c3cccc(/C=C/C(=O)O)c3)n2)CC1 [CBK066097] has a viability at 28.5 h, 10 µM of 96.6%.
COc1ccc(C(=S)NCCCCCC(=O)O)cc1 [CBK288523] showed a viability at 28.5 h, 10 µM of 87.1%.
For Cc1ccc(Nc2cc(-c3cccc4cccnc34)ncn2)cc1NS(C)(=O)=O [CBK091152], the viability at 28.5 h, 10 µM was 92.4%.
In the case of CN1C(C)(C)CC(NC(=O)c2[nH]cnc2C(=O)O)CC1(C)C [CBK287102], the viability at 28.5 h, 10 µM is reported as 87.5%.
Compound Nc1cccc(-c2nc(-c3cccnc3)cnc2N)c1 [CBK063906] has a viability at 28.5 h, 10 µM of 95.3%.
With O=C1N/C(=C/c2cccs2)C(=O)N1Cc1ccccc1F [CBK265601] the viability at 28.5 h, 10 µM was 109%.
With NS(=O)(=O)c1cccnc1NCc1ccccc1 [CBK288448] the viability at 28.5 h, 10 µM was 85.7%.
For c1cncc(OCCN2CCN(c3nccnc3OCCN3CCOCC3)CC2)c1 [CBK082914], the viability at 28.5 h, 10 µM was 107%.
Work on NC(=O)c1cccnc1-c1nc2ccccc2s1 [CBK287930] yielded a viability at 28.5 h, 10 µM of 80%.
CCCCc1cc(=O)[nH]c(N2CCOCC2)n1 [CBK003851] gave a viability at 28.5 h, 10 µM of 102%.
CCOCc1nc2c(c(NCc3cc(C)on3)n1)CCN(C(C)=O)CC2 [CBK307512] showed a viability at 28.5 h, 10 µM of 87.4%.
Compound Cc1nn2c3ccccc3nc2n1CCN1CCCCC1 [CBK278256C] has a viability at 28.5 h, 10 µM of 95.3%.
Work on COc1ccc(OC)c(S(=O)(=O)N2CCCC(C(=O)O)C2)c1 (stereo not shown) [CBK269225] yielded a viability at 28.5 h, 10 µM of 95%.
In the case of O=C(Nn1cnnc1)c1cccc(C(=O)Nn2cnnc2)c1 [CBK091759], the viability at 28.5 h, 10 µM is reported as 99.4%.
Compound CCOC(=O)CCNC(=O)N(CC)Cc1ccccc1 [CBK155228] has a viability at 28.5 h, 10 µM of 88.7%.
In the case of O=C(O)c1cc(-c2ccc(/C=C3\NC(=O)N(Cc4ccccc4)C3=O)o2)ccc1Cl [CBK078117], the viability at 28.5 h, 10 µM is reported as 98.9%.
With CNC(=O)c1cnc(SC)nc1NCCc1c[nH]c2ccccc12 [CBK093597] the viability at 28.5 h, 10 µM was 104%.
Compound CC(=O)N1c2ccccc2C(C)(c2ccc(Br)cc2)CC1(C)C (stereo not shown) [CBK026461] has a viability at 28.5 h, 10 µM of 95.8%.
COc1ccc(CNC(=O)c2sc3nc4c(c(C(F)(F)F)c3c2N)CCC4)cc1OC [CBK074568] showed a viability at 28.5 h, 10 µM of 85.7%.
With N#CC1(c2ccccc2)CCN(C(=O)c2ccc3c(c2)no[n+]3[O-])CC1 [CBK091405] the viability at 28.5 h, 10 µM (bulk resorufin, single well) was 92.2%.
Cc1cc2nn(-c3ccccc3)nc2cc1NC(=O)c1ccc(-c2cccc([N+](=O)[O-])c2)o1 [CBK263859] gave a viability at 28.5 h, 10 µM of 99.6%.
Work on CN(CC1(C)COC1)C(=O)c1cn2cc(Cl)ccc2n1 [CBK281721] yielded a viability at 28.5 h, 10 µM of 109%.
CCOc1ccc(-n2c(SCc3nc(-c4ccccc4C)no3)nnc2-c2ccccc2)cc1 [CBK268910] gave a viability at 28.5 h, 10 µM of 109%.
For COc1ccc(C(CNC(=O)C(=O)Nc2ccc(C(=O)O)cc2)N(C)C)cc1 (stereo not shown) [CBK286724], the viability at 28.5 h, 10 µM was 119%.
O=C1CSC2(CCCCC2)N1Nc1ccccc1 [CBK020047] showed a viability at 28.5 h, 10 µM of 101%.
Compound CC(=O)N1CCC(NC(=O)c2cccc(C(N)=O)c2)CC1 [CBK297747] has a viability at 28.5 h, 10 µM of 115%.
In the case of COc1ccccc1OCCOc1cccc(/C=N/n2cnnc2)c1 [CBK263288], the viability at 28.5 h, 10 µM is reported as 94.7%.
In the case of OCc1cccc(-c2nccnc2NCc2ccc(OC(F)(F)F)cc2)c1 [CBK037476], the viability at 28.5 h, 10 µM is reported as 108%.
CC1CCN(Cc2ccc(-c3nnn(CC(=O)NCc4ccc([N+](=O)[O-])cc4)n3)cc2)CC1 [CBK144176C] showed a viability at 28.5 h, 10 µM of 101%.
Work on Cc1ccc(Cl)cc1N1CCN(CC(O)COCc2ccc3c(c2)OCO3)CC1 (stereo not shown) [CBK278308C] yielded a viability at 28.5 h, 10 µM of 106%.
In the case of CCOC(=O)Nc1ccsc1C(=O)OC [CBK027880], the viability at 28.5 h, 10 µM is reported as 88.6%.
In the case of COc1ccc(C(NC(=O)N2CCN(C(=O)NCc3ccccc3Cl)CC2)c2ccccc2C)cn1 (stereo not shown) [CBK081471], the viability at 28.5 h, 10 µM is reported as 88.7%.
Work on CN(C)S(=O)(=O)c1cccc(C(=O)N(Cc2ccc(F)cc2)Cc2ccco2)c1 [CBK267579] yielded a viability at 28.5 h, 10 µM of 88.8%.
Compound CN(C)CCN(C)Cc1ccc2c(c1)Cc1ccccc1-2 [CBK261856] has a viability at 28.5 h, 10 µM of 93.3%.
For Cc1cc(C)nc(Nc2noc(-c3ccccc3)n2)n1 [CBK269971], the viability at 28.5 h, 10 µM was 94.5%.
Work on CC(=O)NCCSc1nccnc1N1CCCC1 [CBK105619] yielded a viability at 28.5 h, 10 µM of 91.7%.
Cc1cc2ccccc2n2c(=O)n(CC(=O)N3CCC(C)CC3)nc12 [CBK283881] showed a viability at 28.5 h, 10 µM of 92.7%.
